Series [1] is filed under the species Homo sapiens. As to the kind of experiment: Selectivity index, ratio of IC50 for human CYP11B2 to IC50 for human CYP11B1.
The target in series [2] is T1, CYP17 (Homo sapiens, UniProt P05093).
T1 sequence (P05093 whole entry): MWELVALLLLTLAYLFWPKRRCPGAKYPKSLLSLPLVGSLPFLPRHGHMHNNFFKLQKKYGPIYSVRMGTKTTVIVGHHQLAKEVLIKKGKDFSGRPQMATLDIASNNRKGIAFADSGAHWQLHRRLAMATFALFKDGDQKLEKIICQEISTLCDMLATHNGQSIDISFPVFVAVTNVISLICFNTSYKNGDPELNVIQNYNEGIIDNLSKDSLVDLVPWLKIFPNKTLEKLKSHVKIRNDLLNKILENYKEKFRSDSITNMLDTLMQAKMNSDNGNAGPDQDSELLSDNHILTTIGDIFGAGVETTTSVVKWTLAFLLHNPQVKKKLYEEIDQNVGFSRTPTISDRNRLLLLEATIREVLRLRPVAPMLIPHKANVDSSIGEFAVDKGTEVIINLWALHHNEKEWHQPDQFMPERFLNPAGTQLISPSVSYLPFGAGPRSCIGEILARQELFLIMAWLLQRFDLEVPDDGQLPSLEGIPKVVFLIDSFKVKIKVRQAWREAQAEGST
As to the kind of experiment: (§1) Inhibition of human recombinant CYP17 expressed in Escherichia coli at 2 uM using progesterone substrate. Conditions: recombinant human CYP17 expressed in Escherichia coli, probe progesterone; call rule not given here.

Series [3] has as its target T2, Cytochrome P450 11B2, mitochondrial (Homo sapiens, UniProt P19099).
T2 sequence (P19099 whole entry): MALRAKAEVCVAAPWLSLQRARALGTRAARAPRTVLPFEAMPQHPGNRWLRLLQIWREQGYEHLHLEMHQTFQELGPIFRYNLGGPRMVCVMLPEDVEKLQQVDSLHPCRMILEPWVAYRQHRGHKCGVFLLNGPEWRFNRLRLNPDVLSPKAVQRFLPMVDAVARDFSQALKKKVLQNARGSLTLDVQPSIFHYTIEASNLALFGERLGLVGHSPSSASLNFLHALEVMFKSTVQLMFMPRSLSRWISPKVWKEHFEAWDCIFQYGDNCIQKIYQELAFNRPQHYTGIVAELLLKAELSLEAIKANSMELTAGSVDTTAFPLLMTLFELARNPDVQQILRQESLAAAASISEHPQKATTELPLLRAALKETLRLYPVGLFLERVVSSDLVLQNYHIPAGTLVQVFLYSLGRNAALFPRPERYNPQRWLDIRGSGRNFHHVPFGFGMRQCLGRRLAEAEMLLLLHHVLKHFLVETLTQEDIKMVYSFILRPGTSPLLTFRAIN
As to the kind of experiment: Inhibition of human CYP11B2 expressed in hamster V79MZ cells using 11-deoxycorticosterone substrate. The format is cell-based.

For series [4], the target named is T3, CYP19 (aromatase) (Homo sapiens, UniProt P11511).
T3 sequence (P11511 whole entry): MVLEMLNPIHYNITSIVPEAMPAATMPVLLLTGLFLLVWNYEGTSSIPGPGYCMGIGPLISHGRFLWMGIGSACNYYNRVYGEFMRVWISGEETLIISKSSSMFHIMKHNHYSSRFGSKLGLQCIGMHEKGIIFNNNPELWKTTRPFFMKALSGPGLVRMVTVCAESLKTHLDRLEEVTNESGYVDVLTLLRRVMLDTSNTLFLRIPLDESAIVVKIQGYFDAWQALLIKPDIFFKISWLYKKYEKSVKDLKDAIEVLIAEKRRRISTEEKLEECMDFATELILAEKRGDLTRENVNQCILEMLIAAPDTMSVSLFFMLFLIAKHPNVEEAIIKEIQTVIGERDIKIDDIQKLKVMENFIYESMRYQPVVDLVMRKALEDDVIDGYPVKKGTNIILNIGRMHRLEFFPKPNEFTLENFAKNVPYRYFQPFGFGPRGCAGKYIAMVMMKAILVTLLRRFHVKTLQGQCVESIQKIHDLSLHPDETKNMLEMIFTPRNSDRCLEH
As to the kind of experiment: Inhibition of human placental microsomes CYP19 at 500 nM using androstenedione substrate. Conditions: human placental microsomes, probe androstenedione.

Series [5] concerns the target T4, Cytochrome P450 11B1, mitochondrial (Homo sapiens, UniProt P15538).
T4 sequence (P15538 whole entry): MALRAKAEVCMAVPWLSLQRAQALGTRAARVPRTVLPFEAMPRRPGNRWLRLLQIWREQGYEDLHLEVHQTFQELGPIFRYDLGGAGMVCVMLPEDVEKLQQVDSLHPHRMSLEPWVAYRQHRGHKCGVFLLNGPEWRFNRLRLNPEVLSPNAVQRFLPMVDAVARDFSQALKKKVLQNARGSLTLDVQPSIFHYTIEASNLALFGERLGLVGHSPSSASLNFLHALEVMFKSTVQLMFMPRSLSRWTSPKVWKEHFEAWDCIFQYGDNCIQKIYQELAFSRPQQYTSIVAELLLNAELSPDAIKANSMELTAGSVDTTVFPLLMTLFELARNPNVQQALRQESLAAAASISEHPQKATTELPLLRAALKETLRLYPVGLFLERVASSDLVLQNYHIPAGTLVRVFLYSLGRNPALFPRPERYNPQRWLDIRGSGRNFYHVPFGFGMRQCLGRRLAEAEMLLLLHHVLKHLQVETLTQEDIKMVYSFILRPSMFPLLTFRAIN
Nature of the series: Inhibition of human CYP11B1 expressed in hamster V79MZ cells using 11-deoxycorticosterone substrate. The format is cell-based.

Series [6] concerns the target T5, Steroid 17-alpha-hydroxylase/17,20 lyase (Homo sapiens, UniProt P05093).
T5 sequence (P05093 whole entry): T1 sequence (P05093 whole entry)
The description is as §1. The note with it: 2 µM.

pIC50: −log10 of the molar value.

Take `c1ccc(-c2ccc(Cn3ccnc3)cc2)cc1`: the Ratio IC50 in series [1] came to 20. Moreover, the inhibition (commonly the share of the control response that was lost under treatment) at 2 µM in series [2] was 40%. Also, the pIC50 (in general, the negative decadic logarithm of the IC50, by convention in mol/L) in series [3] was 6.20; in series [5] it was 7.49. Further, the inhibition at 0.5 µM in series [4] was determined as 5%.

As to `c1ccc(-c2ccc(Cn3ccnc3)s2)cc1`, the Ratio IC50 in series [1] came out at 8.2. Besides, the inhibition at 2 µM in series [2] stood at 21%. The pIC50 is 6.45 in series [3] and 7.37 in series [5]. In series [4], this compound yielded an inhibition at 0.5 µM of 12%.

For `c1ccc(-c2cccc(Cn3ccnc3)c2)cc1`, the Ratio IC50 in series [1] was determined as 5.8. For the same compound, the “inhibition (INH)” value in series [6] is reported as “Not Active”. The pIC50 was 6.58 in series [3] and 7.34 in series [5]. Besides, testing at 0.5 µM in series [4] gave an inhibition of 38%.

With `c1ccc(C(CCn2ccnc2)(c2ccccc2)c2ccccc2)cc1`, in series [1], the Ratio IC50 amounted to 3.6. The “inhibition (INH)” value in series [6] is given as “Not Active”. Moreover, the pIC50 in series [3] is 6.54; in series [5], 7.10. This compound also returned an inhibition at 0.5 µM in series [4] of 38%.

In the case of `c1ccc(-c2ccccc2Cn2ccnc2)cc1`, the Ratio IC50 in series [1] is 2.6. Besides, the “inhibition (INH)” value in series [6] was “Not Active”. The pIC50 is 7.41 in series [3] and 7.82 in series [5]. Also, the inhibition at 0.5 µM in series [4] worked out at 38%.

Consider `c1ccc(-c2cc(Cn3ccnc3)cc(-c3ccccc3)c2)cc1`, for which the Ratio IC50 in series [1] was found to be 2.6. In addition, in series [2], the inhibition at 2 µM came out at 52%. Further, the pIC50 in series [3] is 6.48; in series [5], 6.89. This compound also displayed an inhibition at 0.5 µM in series [4] of 12%.

For `c1ccc(-c2ccc(Cn3ccnc3)o2)cc1`, in series [1], the Ratio IC50 came out at 8.1. In series [2], the inhibition at 2 µM turned out to be 0%. Moreover, the results for the pIC50 in series [3] and in series [5] were 6.43 and 7.34, respectively. In addition, the inhibition at 0.5 µM in series [4] stood at 38%.

Consider `c1ccc(C(c2ccccc2)(c2ccccc2)n2ccnc2)cc1`, for which the Ratio IC50 in series [1] was found to be 3.4. The “inhibition (INH)” value in series [6] is on record as “Not Active”. Besides, the pIC50 in series [3] is 7.96; in series [5] it was 8.52. Besides, the inhibition at 0.5 µM in series [4] stood at 38%.

`Cc1c(C)c(C)c(Cn2ccnc2)c(C)c1C`: the Ratio IC50 in series [1] came out at 4.6. For the same compound, the “inhibition (INH)” value in series [6] is recorded as “Not Active”. Besides, the values for the pIC50 in series [3] and in series [5] were 7.64 and 8.30, respectively. Testing at 0.5 µM in series [4] gave an inhibition of 12%.

On to `Cc1cccc(Cn2ccnc2)c1`, for which the Ratio IC50 in series [1] amounted to 2.3. Also, in series [6], the “inhibition (INH)” value was “Not Active”. For the same compound, the negative-log IC50 (pIC50) is 6.96 in series [3] and 7.32 in series [5]. Besides, the inhibition at 0.5 µM in series [4] was determined as 12%.
